Tests used:
ehDmc1 = target: T1, ehDmc1 (Entamoeba histolytica, UniProt C4LTR6); assay: D-loop assay with purified protein (IC50); also ssDNA EMSA, nuclease protection and ATPase assays; type: biochemical
T1 construct: gene EHI_050430; 334 amino acid protein with N-terminal six-histidine tag
T1 sequence (C4LTR6 1-347): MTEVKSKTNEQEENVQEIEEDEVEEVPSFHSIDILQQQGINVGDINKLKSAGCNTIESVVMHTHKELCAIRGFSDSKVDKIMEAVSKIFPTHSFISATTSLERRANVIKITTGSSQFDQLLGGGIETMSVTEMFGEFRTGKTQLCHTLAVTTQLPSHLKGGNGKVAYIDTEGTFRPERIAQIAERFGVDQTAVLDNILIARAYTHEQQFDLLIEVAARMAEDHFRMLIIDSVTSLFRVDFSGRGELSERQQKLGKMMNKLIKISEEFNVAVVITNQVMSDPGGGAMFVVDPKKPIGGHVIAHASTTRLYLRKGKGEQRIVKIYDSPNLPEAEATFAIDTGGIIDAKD

[1] = substrate: Nc1ncnc2c1ncn2[C@@H]1O[C@H](COP(=O)(O)OP(=O)(O)OP(=O)(O)O)[C@@H](O)[C@H]1O; assay: Michaelis-Menten ATP hydrolysis assay (TLC), purified protein; Km; type: biochemical, Entamoeba histolytica; conditions: Mg2+

Molecule: O=S(=O)(O)c1cc(N=C=S)ccc1C=Cc1ccc(N=C=S)cc1S(=O)(=O)O [DIDS, 4,4′-diisothiocyanostilbene-2,2′-disulfonic acid]
- IC50 (ehDmc1): 4.5 ± 0.23 µM

B1: ehDmc1 (Entamoeba histolytica HM-1:IMSS) (protein)
chain: T1 sequence (C4LTR6 1-347)
notes: 334 amino acid protein with N-terminal six-histidine tag
- Km [1]: 480 ± 50 µM

Reference: PMC4589404, “Entamoeba histolytica Dmc1 Catalyzes Homologous DNA Pairing and Strand Exchange That Is Stimulated by Calcium and Hop2-Mnd1” (PLoS ONE, 2015)
